Data reported in US6624140B1, “Synthetic peptides with antimicrobial and endotoxin neutralizing properties for management of the sepsis syndrome” (Academisch Ziekenhuis Bij de Universiteit van Amsterdam …, priority 1997, dated 2003).
No end group written: not given here.

Columns and labels:
[1] = Solid-state Lipid A binding ELISA microplate assay; design: species or system Escherichia coli; details: for apparent binding affinity Ka for Lipid A: biotinylated derivatives, immobilized E. coli D31m4 Lipid A, Scatchard plot
Experimental: FIG. 3. Lipid A binding affinity of the synthetic peptides. Plastic ELISA microtiter plates were coated with purified E. coli D31m4 Lipid A at 1 μg/ml. Incubations were for 20 min with the indicated concentrations of synthetic peptides BP1, BP2 or BP2.1 or control peptide BPI(85-102) followed by streptavidin-HRP at a dilution of 1 in 20 000. Washing steps to remove excess peptide or streptavidin were with 50 mM Tris buffer pH 7.4 containing 0.05% (v/v) Tween 20. Development was with TMB substrate for 10 min. The optical density (O.D) at 450 nm was measured with a microplate reader and values were corrected for non-specific binding which was generally between 5 and 10%. The plotted values are the corrected means of triplicate experiments.
Double-immunodiffusion of the peptides of the invention against ‘rough’ R-type E. coli D31m4 Re-LPS (List Biological Laboratories Inc., Calif.) or the structurally more complex ‘smooth’ S-type E. coli 0111:B4 LPS (Sigma Chemical Co., Rockford, Ill.) was performed in 0.8% (w/v) agarose containing 50 mM Tris and 0.1% (w/v) Triton X100, pH 7.5. for 16 h at 20° C. PmB and BPI(85-102) were included as control compounds for comparative purposes. The microprecipitates formed were visualized by Coommassie brilliant blue staining. […] Since the amount of precipitate formed is a function of valency, the peptides of the invention appear to be capable of a high degree of intermolecular binding of LPS molecules via the Lipid A moieties. […] A turbidity assay was employed for a direct comparison of the endotoxin-binding activity or avidity of selected synthetic peptides according to the invention using the ‘rough’ serotypes E. coli Re or Rc (J5) LPS. PmB and BPI(85-102) were included as control compounds for comparative purposes. The degree of precipitation of endotoxin by the synthetic peptides according to the invention was determined by measurement of the optical density of insoluble complexes formed at 340 nm (FIG. 2). In most instances optimal complexation of Re or J5 LPS by the synthetic peptides of the invention was evident at a molar ratio of peptide to endotoxin of 1 to 2. The control BPI(85-102) peptide was required at a 4-fold molar excess for approximately the same degree of complexation. […] There was no significant difference between complexation of Re or the structurally more complex J5-LPS by the synthetic peptides. […] The Lipid A binding affinity of the synthetic peptides were directly compared in a solid-state endotoxin-binding assay. Binding characteristics of biotinylated derivatives of the synthetic peptides BP1, BP2, BP2.1 and the control peptide BPI(85-102) were determined on ELISA microtiter plates coated with E. coli D31m4 Lipid A. Specific binding of the biotinylated peptides to the immobilized Lipid A was determined by development with Streptavidin-HRP and 3, 5, 3′, 5′ tetra-methylbenzidine (TMB) substrate and expressed as the corrected optical density at 450 nm. […] The affinity of the novel synthetic peptide BP2 for endotoxin of increasing complexity as well as the effect of plasma on binding was examined with the use of the ELISA microplate assay.

[2] = system: IL-6 production by endotoxin; assay: IL-6 production in diluted whole blood, simultaneous addition of LPS and peptide; format: cell-based, human; details: LPS 1 ng/ml; concentrations as low as 1 μM; control even at 4-fold higher concentration; heparin 100 I.U/ml
Experimental: FIG. 9. Effect of simultaneous addition of E. coli 0111:B4 LPS and synthetic peptides on IL-6 production in whole blood diluted 1 in 10. Synthetic peptides BP1 or BP2 or the control peptide BPI(85-102) at the concentrations indicated, were added together with E. coli 0111:B4 LPS at 1 ng/ml to diluted whole blood containing heparin at 100 I.U/ml. IL-6 concentration was determined after incubation for 16 h at 37° C. Each value is the mean of triplicate experiments. Controls contained no added peptide.
The endotoxin neutralizing activities of the synthetic peptides of the invention were evaluated by investigating the effect on LPS-stimulated release of the pro-inflammatory cytokines, tumor necrosis factor alpha (TNF-α), interleukin-6 (IL-6) or interleukin-8 (IL-8) in a well characterized in vitro human whole blood bioassay system. In one series of experiments, dilutions of E. coli 0111:B4 LPS from 0.2 to 1 ng/ml were pre-incubated with synthetic peptides at 10 μg/ml concentrations in RPMI medium for 30 min at 20° C. and added to diluted whole blood. Cytokine concentrations in the supernatants were determined after further incubation for 16 h at 37° C. in the presence of 5% CO2 by specific and sensitive ELISA kits (CLB, Amsterdam, The Netherlands). In another series of experiments, the effects of synthetic peptides at concentrations of 2,5, 5 and 10 μg/ml on IL-6 induction by 1 ng/ml 0111:B4 LPS was examined after simultaneous addition of synthetic peptide and LPS to diluted whole blood. […] The control peptide BPI(85-102) was ineffective in reducing cytokine production under these conditions even at a 4-fold higher concentration. This probably reflects the differences in binding affinity for Lipid A of BP1 and BP2 compared with the BPI(85-102) peptide of approximately 5 and 10-fold, respectively. An additional factor which may have influenced binding of the control peptide to endotoxin is the presence of heparin employed as an anti-coagulant at a concentration of 100 I.U/ml in the assay system. […]

[3] = system: IL-6 inducing ability of E. coli 0111:B4 LPS; assay: Effect of heparin on neutralization of IL-6 inducing ability of LPS; format: cell-based, human; details: for reduction of LPS neutralizing efficacy by heparin: same heparin concentration (0.4 U/ml)
Experimental: FIG. 10. Effect of heparin on the efficacy of neutralization of the IL-6 inducing ability of E. coli 0111:B4 LPS by synthetic peptide or Polymyxin B in whole blood diluted 1 in 10. Synthetic peptides at concentrations of 2 μg/ml or PmB at 1 μg/ml was pre-incubated for 30 min at 37° C. with E. coli 0111:B4 LPS at 1 ng/ml in RPMI medium containing heparin in the concentration range of 0.1 to 100 I.U/ml. The residual cytokine inducing ability of the treated endotoxin was determined in diluted whole blood containing heparin at 2 IU/ml after incubation for 16 h at 37° C. Each value is the mean of triplicate determinations corrected for background. Controls contained only LPS.
The endotoxin neutralizing activities of the synthetic peptides of the invention were evaluated by investigating the effect on LPS-stimulated release of the pro-inflammatory cytokines, tumor necrosis factor alpha (TNF-α), interleukin-6 (IL-6) or interleukin-8 (IL-8) in a well characterized in vitro human whole blood bioassay system. In one series of experiments, dilutions of E. coli 0111:B4 LPS from 0.2 to 1 ng/ml were pre-incubated with synthetic peptides at 10 μg/ml concentrations in RPMI medium for 30 min at 20° C. and added to diluted whole blood. Cytokine concentrations in the supernatants were determined after further incubation for 16 h at 37° C. in the presence of 5% CO2 by specific and sensitive ELISA kits (CLB, Amsterdam, The Netherlands). In another series of experiments, the effects of synthetic peptides at concentrations of 2,5, 5 and 10 μg/ml on IL-6 induction by 1 ng/ml 0111:B4 LPS was examined after simultaneous addition of synthetic peptide and LPS to diluted whole blood. […] The control peptide BPI(85-102) was ineffective in reducing cytokine production under these conditions even at a 4-fold higher concentration. This probably reflects the differences in binding affinity for Lipid A of BP1 and BP2 compared with the BPI(85-102) peptide of approximately 5 and 10-fold, respectively. An additional factor which may have influenced binding of the control peptide to endotoxin is the presence of heparin employed as an anti-coagulant at a concentration of […] in the assay system. […] On this basis, it was predicted that the extent of reduction of endotoxin neutralizing efficacy would be a function of the differences in affinity between peptides for endotoxin and heparin. To verify this hypothesis, a series of experiments to determine the effect of increasing heparin concentrations on the efficacy of endotoxin neutralization during pre-incubation of synthetic peptide and E. coli 0111:B4 LPS were performed. FIG. 10 illustrates a dose-dependent suppression of endotoxin neutralizing activity of the synthetic peptides by heparin as exemplified by a reduction of IL-6 inhibition. […]

| Substance | apparent binding affinity Ka for Lipid A [1] | inhibition of IL-6 production [2] | reduction of LPS neutralizing efficacy by heparin [3] | difference in binding affinity for Lipid A compared with BPI(85-102) [1] | fold higher affinity for Lipid A compared with Polymyxin B [1] | molar excess of heparin with respect to LPS for 50% competitive inhibition [3] |
| --- | --- | --- | --- | --- | --- | --- |
| Ile-Lys-Ile-Ser-Gly-Lys-Trp-Lys-Ala-Gin-Lys-Arg-Phe-Leu-Lys-Met-Ser-Gly-(Cys) (IKISGKWKAQKRFLKMSGC; listed as Homo sapiens) [BPI(85-102), reference compound] | 2e+07 M⁻¹ | ineffective | 80% |  |  |  |
| GRLRKKWKAFKKFLKILAC [BP1] | 9e+07 M⁻¹ | completely inhibiting | 75% | approximately 5 fold |  |  |
| GKWKLFKKAFKKFLKILAC-OH [BP2, Gly-Lys-Trp-Lys-Leu-Phe-Lys-Lys-Ala-Phe-Lys-Lys-Phe-Leu-Lys-Ile-Leu-Ala-Cys] | 1.9e+08 M⁻¹ | completely inhibiting |  | ~10 fold | approximately 20 fold | approximately 10,000 fold |
